Results published in publication PMC6093661, “Vitamin E hydroquinone is an endogenous regulator of ferroptosis via redox control of 15-lipoxygenase” (PLoS ONE, 2018).

Key:
[1] = Radical-trapping antioxidant (RTA) activity assay in DOPC liposomes; settings: 50 μM compound, 2 mol% in DOPC liposomes, BODIPY 581/591 C11 quenching; liposome-only control = 1
[2] = ORAC (oxygen radical absorbance capacity) assay; settings: average of 25 and 12.5 μM compound; mean, SEM, n = 6
Procedure: ORAC assay kits were purchased from Cell Biolabs. Assays were performed per the manufacturer’s instructions for lipophilic samples with minor modifications. DMSO stock solutions of compounds were diluted in an anaerobic glovebox to final concentrations of 25 and 12.5 μM in triplicate. A standard curve of Trolox® between 0–100 μM in triplicate per concentration was also generated on each assay plate. Diluted compounds and standards were removed from the glovebox and reactions initiated by addition of aerobic fluorescein reagent and radical initiator. Fluorescein fluorescence was monitored at excitation wavelength of 480 nm and emission wavelength of 520 nm every minute for one hour. AUC analysis was performed as described in the kit protocol. The “Trolox equivalents” at each concentration of test compound were calculated and the average Trolox equivalents at the two compound concentrations are presented. The errors were determined by propagating errors from the SEMs of the triplicate determinations to the averages across the two triplicate determinations.

[3] = test system: Mouse striatal Q7 cells (STHdhQ7/Q7); experiment: RSL3 ferroptosis cell rescue (cellular survival assay, CellTiter-Glo)
[4] = biological target: T1, Rabbit 15-lipoxygenase (rLOX15) (Oryctolagus cuniculus, UniProt P12530); experiment: Lipoxygenase enzyme inhibition assay; format: biochemical; settings: rabbit 15-LO
T1 construct: purchased Enzo Life Sciences, Inc. BML-PL015
T1 sequence (P12530 1-663): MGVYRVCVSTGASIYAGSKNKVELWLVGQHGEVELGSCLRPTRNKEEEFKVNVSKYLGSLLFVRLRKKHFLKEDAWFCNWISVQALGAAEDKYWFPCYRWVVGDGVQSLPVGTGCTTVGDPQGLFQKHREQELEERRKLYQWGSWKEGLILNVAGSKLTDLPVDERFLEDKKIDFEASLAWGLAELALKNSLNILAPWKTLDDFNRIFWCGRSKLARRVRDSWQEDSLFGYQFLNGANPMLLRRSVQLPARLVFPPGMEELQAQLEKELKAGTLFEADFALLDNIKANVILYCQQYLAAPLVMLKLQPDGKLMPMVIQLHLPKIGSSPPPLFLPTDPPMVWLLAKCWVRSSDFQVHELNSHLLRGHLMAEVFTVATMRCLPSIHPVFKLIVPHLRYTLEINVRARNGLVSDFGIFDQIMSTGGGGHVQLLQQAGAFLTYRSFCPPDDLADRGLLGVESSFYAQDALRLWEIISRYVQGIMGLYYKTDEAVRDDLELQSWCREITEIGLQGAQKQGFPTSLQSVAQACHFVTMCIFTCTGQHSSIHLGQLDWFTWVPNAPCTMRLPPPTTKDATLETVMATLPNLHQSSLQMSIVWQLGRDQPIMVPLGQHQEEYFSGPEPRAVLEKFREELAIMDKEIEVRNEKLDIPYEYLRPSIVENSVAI
Procedure: Rabbit 15-lipoxygenase (rLOX15, part number BML-PL015, lot number 3-P9009a) was obtained from Enzo Life Sciences, Inc. Sodium cholate (part number C6445, lot number 094K0209) was obtained from Sigma-Aldrich.
Stock solutions of test compounds were prepared in DMSO and then diluted to final assay concentrations in cholate mix such that final cholate and DMSO concentrations were maintained at 0.2%.

Q7 cells [5] = experiment: Intracellular quantification of αT, αTQ and αTHQ in Q7 cells (LC-MS/MS, succinate capping); settings: all cases tested (basal, αT- or αTQ-supplemented)
[6] = biological target: T2, Soybean 15-lipoxygenase (SLO) (Glycine max, UniProt P08170); experiment: EPR spectroscopy of lipoxygenase active-site iron redox state; format: biochemical; settings: SLO oxidised with lipid-OOH set to 100% Fe3+; addition of compound
T2 construct: purchased Cayman Chemical 60700
T2 sequence (P08170 1-839): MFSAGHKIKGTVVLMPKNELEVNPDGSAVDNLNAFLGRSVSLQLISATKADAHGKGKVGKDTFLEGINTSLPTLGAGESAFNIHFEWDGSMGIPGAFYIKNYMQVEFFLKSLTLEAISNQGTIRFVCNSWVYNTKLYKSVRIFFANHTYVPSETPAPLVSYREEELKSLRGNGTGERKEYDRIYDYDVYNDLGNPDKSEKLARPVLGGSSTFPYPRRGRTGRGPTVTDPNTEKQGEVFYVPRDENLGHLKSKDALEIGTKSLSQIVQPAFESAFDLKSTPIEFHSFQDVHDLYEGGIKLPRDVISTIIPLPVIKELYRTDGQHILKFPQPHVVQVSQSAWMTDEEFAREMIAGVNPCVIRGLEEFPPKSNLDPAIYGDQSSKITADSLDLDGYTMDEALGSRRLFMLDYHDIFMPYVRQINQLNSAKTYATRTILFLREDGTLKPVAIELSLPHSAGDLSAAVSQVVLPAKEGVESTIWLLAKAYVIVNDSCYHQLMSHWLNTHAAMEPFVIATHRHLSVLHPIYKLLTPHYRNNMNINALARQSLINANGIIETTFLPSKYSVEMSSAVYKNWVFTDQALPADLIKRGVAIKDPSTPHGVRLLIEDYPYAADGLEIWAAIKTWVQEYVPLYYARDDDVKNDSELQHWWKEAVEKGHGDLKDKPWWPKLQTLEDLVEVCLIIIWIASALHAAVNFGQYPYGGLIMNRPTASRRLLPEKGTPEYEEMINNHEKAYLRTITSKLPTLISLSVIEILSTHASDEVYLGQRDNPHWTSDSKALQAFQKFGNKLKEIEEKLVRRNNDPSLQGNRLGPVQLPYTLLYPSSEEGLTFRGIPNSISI
Procedure: Lipoxygenase: Soybean 15-lipoxygenase (SLO) was buffer exchanged into 50 mM borate buffer, pH 9.0 containing 10% (v/v) glycerol. The resulting protein solution was concentrated to approximately 100 μM, based upon the supplier’s activity per mL and specific activity per mg. The active-site iron oxidation state was further evaluated by EPR under three treatment conditions: 1) No treatment, 2) oxidation with 3-fold molar excess of lipid hydroperoxide (final concentration of 300 μM) from an ethanol stock, 3) oxidation with 3-fold molar excess of lipid hydroperoxide followed by 10-fold molar excess of αTHQ or αT3HQ (final concentration of 1 mM) from a DMSO stock. All samples contained the same final concentrations of ethanol and DMSO as sample 3. The EPR spectra of buffer alone were also evaluated to allow for baseline subtraction.
CW-EPR spectra were recorded at 150 K on a Bruker ELEXYS E540 spectrometer fitted with an X-band microwave bridge, a Super High Sensitivity Resonator (SHQ), and a Nitrogen VT apparatus. The spectra were recorded at 9.43 GHz with 1.002 mW microwave power, 10 G modulation amplitude, 100 kHz modulation frequency, 25 scans.

Q7 cells [7] = experiment: Cellular lipid oxidation assay (BODIPY 581/591 C11, RSL3-treated Q7 cells); format: cell-based, mouse; settings: RSL3 2 μM, 6-point titration, time-lapse microscopy
Procedure: Ferroptosis was induced by RSL3 (2 μM final concentration) in Q7 cells as described above. The protective activity of co-treated compounds was assessed also as described above. The rate of cellular lipid oxidation after GPX4 inhibition was assessed by monitoring the time-dependent changes in green fluorescence of cells pre-labeled with BODIPY™ 581/591 C11 dye (5 μM, 30-minute labeling period; Thermo Fisher/Invitrogen) using the IncuCyte S3 live-cell imaging apparatus (Sartorius) using a 10x objective. Cells (three images per field; at least three replicate wells per condition) were imaged once hourly for up to 18 hours after compound and RSL3 addition. Quantification of cell images was performed using the IncuCyte Zoom software using the Basic Analyzer tool which utilized an algorithm that calculated the total green-positive area per well where “green-positive” was defined as 1.45 times the local background-subtracted fluorescent signal. After a 2-3-hour lag period post-RSL3 treatment, the cellular green fluorescence signal began increasing. The rate of change in total green-positive area per well from 3–9 hours post-compound treatment was calculated, then expressed relative to that observed in the RSL3-only control treatment group, which was defined as 100%.

Cc1c(C)c(O)c(CC[C@](C)(O)CCC[C@H](C)CCC[C@H](C)CCCC(C)C)c(C)c1O [αTHQ, α-tocopherol hydroquinone]
Radical Trapping Assay AUC (Rel. Control) [1]: 1.855
ORAC Antioxidant Activity Assay Trolox Equiv. [2]: 0.106 Trolox Equiv.
EC50 ([3]; Mus musculus, 18 h, read-out: RSL3 Ferroptosis Cell Assay Average EC50, Q7 cells, RSL3 2 μM, 18 h co-treatment, CellTiter-Glo 2.0): 0.09 ± 0.03 µM
fold more potent than αT in preventing ferroptotic cell death ([3]; Q7 cells, RSL3, EC50 ratio vs αT): 57 fold
15-LO inhibitory potency fold compared with αTQ, αT, or αTCC [4]: > 40 fold
IC50 ([4]; 50 μM arachidonic acid substrate): 2.45 µM
activity at 100 µM ([4]; compound 100 μM, read-out: 15-Lipoxygenase Enzyme Assay % activity at 100 μM): 15%
cellular αTHQ exposures exceed those of αTQ (Q7 cells [5]): 3- to 4 fold
decrease in the SLO-Fe3+ signal [6]: 50%
effect on RSL3-induced lipid oxidation (BODIPY 581/591 C11 oxidation) (Q7 cells [7]): prevented
